Test results taken from patent US20100167275A1, “Potassium channel mutants of the yeast Saccharomyces cerevisiae and their use for screening eukaryotic potassium channels” (sanofi-aventis Deutschland GmbH, priority 2000, published 2010).
“And” between values parts separate entries of the source, which are not always exact repeats. Equal entries are not always repeated. Where two headings read alike, the source gives them in different places.

Experiments:
[1] = system: Saccharomyces cerevisiae wild-type strain; type: cell-based
Protocol: (§1) FIG. 9: Growth of the Saccharomyces cerevisiae wild-type strain in DPM-HIS/-TRP 5 mM KCl medium in 96-well ELISA plates in the presence of 0.5 mM CsCl. The various inhibitors were employed at a final concentration of in each case 30 μM. To measure the cell density, a commercially available LacZ reporter system pYX232 by Ingenius (cat. No. MBV-032-10) was transformed into the yeast strains to be studied. Expression of the LacZ reporter gene was under the control of the constitutive Saccharomyces cerevisiae promotor TPI for the triose phosphate isomerase gene. The LacZ enzyme activity was measured via detecting the luminescence after 24 hours' growth (density of the starter culture: 0.01 OD620) using a commercially available assay system by TROPIX.
The values correspond to the average of in each case 4 measurements±SD. The two different assays were carried out independently of each other on two different days.
(§2) All substances, dissolved in DMSO, were employed in a final concentration of 30 μM. As a control, cells were measured with the same final concentration of 0.5% DMSO without substance, without DMSO addition or without substance.

[2] = system: Saccharomyces cerevisiae wild-type strain; assay: Growth of wild-type strain in DPM medium with 5 mM or 80 mM KCl, OD 620 nm; type: cell-based; conditions: 30 μM; for toxic effect on yeast cells (Saccharomyces cerevisiae): growth medium containing 80 mM KCl; for growth OD 620 nm, 5 mM KCl, measurement 1 / growth OD 620 nm, 5 mM KCl, measurement 2 / growth OD 620 nm, 5 mM KCl, measurement 3 / growth OD 620 nm, 5 mM KCl, measurement 4 / 5 mM KCl (average growth, OD 620 nm) / growth OD 620 nm, 80 mM KCl, measurement 1 / growth OD 620 nm, 80 mM KCl, measurement 2 / growth OD 620 nm, 80 mM KCl, measurement 3 / growth OD 620 nm, 80 mM KCl, measurement 4 / 80 mM KCl (average growth, OD 620 nm): wild-type cells, DPM, 24 hours growth, starting culture 0.01 OD; for 5 mM KCl (average growth, OD 620 nm) / 80 mM KCl (average growth, OD 620 nm): average of 4
Source text: However, the present results could not exclude that the inhibitory effect found for these substances can possibly also be attributed to an inhibition of other proteins which are essential for the growth of yeast cells. […]

[3] = target: human potassium channel HERG1 (Homo sapiens, UniProt Q12809)
Chain of human potassium channel HERG1 (Q12809 whole entry): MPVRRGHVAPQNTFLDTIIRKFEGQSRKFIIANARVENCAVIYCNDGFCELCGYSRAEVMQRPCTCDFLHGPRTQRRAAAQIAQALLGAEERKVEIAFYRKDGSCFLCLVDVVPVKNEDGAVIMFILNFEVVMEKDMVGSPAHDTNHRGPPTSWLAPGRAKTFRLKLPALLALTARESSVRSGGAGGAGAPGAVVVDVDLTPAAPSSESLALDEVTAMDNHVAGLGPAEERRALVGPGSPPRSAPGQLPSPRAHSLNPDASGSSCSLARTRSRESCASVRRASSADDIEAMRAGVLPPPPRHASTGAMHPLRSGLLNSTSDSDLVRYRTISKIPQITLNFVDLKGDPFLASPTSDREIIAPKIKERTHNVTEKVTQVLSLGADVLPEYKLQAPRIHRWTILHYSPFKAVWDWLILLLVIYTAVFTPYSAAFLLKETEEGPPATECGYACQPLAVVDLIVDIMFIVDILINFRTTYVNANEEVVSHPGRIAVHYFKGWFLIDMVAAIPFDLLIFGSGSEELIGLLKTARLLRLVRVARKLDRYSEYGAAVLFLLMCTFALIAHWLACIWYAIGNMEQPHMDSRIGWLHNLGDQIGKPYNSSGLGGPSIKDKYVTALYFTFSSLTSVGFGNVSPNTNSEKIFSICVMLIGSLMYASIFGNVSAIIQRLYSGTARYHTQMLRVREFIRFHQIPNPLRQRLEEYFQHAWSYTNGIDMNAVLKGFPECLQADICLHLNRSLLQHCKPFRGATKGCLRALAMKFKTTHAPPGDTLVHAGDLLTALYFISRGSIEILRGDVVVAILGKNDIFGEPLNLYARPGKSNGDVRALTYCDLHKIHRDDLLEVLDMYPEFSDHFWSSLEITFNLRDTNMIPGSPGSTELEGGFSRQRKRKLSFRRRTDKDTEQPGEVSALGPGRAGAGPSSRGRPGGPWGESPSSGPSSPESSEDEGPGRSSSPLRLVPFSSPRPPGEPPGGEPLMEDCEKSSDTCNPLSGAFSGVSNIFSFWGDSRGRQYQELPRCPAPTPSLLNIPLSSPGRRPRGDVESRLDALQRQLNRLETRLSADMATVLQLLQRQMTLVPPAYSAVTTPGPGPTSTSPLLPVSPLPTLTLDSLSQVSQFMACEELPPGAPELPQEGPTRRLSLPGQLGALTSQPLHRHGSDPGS
Protocol: FIG. 7: Expression of the human potassium channel HERG1 in the triple mutant Δtrk1Δtrk2Δtok1 in DPM-HIS/-TRP 5 mM KCl medium in 96-well ELISA plates in the presence of 0.5 mM CsCl as activator.
as §1, with “The” for “FIG. 9: Growth of the Saccharomyces cerevisiae wild-type strain in DPM-HIS/-TRP 5 mM KCl medium in 96-well ELISA plates in the presence of 0.5 mM CsCl. The”, “TROPIX. The values correspond to the average of in each case 4 measurements±SD. The two different assays were carried out independently of each other on two different days.” for “TROPIX.”
FIG. 8: Expression of the human potassium channel HERG1 in the triple mutant Δtrk1Δtrk2Δtok1 in DPM-HIS 5 mM KCl medium in 96-well ELISA plates in the presence of 0.5 mM CsCl as activator.
The various inhibitors were employed at a final concentration of in each case 30 μM. The cell density was measured after 38 hours' growth (density of the starter culture: 0.03 OD620) via determination of the optical density at a wavelength of 620 nm. The values corresponded to the average of in each case 4 measurements±SD.
All growth assays in the triple mutant Δtrk1Δtrk2Δtok1 were carried out in growth medium DPM (defined potassium medium) at the pH and the potassium concentration stated in each case.
as §2

[4] = 30 μM, wild-type cells, DPM -HIS/-TRP, 0.5 mM CsCl, 24 hours growth, TROPIX kit, ASSAY 1
[5] = 30 μM, wild-type cells, DPM -HIS/-TRP, 0.5 mM CsCl, 24 hours growth, TROPIX kit, ASSAY 1, mean of 4
[6] = 30 μM, wild-type cells, DPM -HIS/-TRP, 0.5 mM CsCl, 24 hours growth, TROPIX kit, ASSAY 2
[7] = 30 μM, wild-type cells, DPM -HIS/-TRP, 0.5 mM CsCl, 24 hours growth, TROPIX kit, ASSAY 2, mean of 4

| SMILES | Exp. 1 (LacZ luminescence), ASSAY 1 [1, 4] | Exp. 2 (LacZ luminescence), ASSAY 1 [1, 4] | Exp. 3 (LacZ luminescence), ASSAY 1 [1, 4] | Exp. 4 (LacZ luminescence), ASSAY 1 [1, 4] | Mean growth (LacZ luminescence), ASSAY 1 [1, 5] | Exp. 1 (LacZ luminescence), ASSAY 2 [1, 6] | Exp. 2 (LacZ luminescence), ASSAY 2 [1, 6] | Exp. 3 (LacZ luminescence), ASSAY 2 [1, 6] | Exp. 4 (LacZ luminescence), ASSAY 2 [1, 6] | Mean growth (LacZ luminescence), ASSAY 2 [1, 7] | toxic effect on yeast cells (Saccharomyces cerevisiae) ([2]; FIG. 10) | growth OD 620 nm, 5 mM KCl, measurement 1 [2] | growth OD 620 nm, 5 mM KCl, measurement 2 [2] | growth OD 620 nm, 5 mM KCl, measurement 3 [2] | growth OD 620 nm, 5 mM KCl, measurement 4 [2] | 5 mM KCl (average growth, OD 620 nm) [2] | growth OD 620 nm, 80 mM KCl, measurement 1 ([2]; 80 mM KCl) | growth OD 620 nm, 80 mM KCl, measurement 2 ([2]; 80 mM KCl) | growth OD 620 nm, 80 mM KCl, measurement 3 ([2]; 80 mM KCl) | growth OD 620 nm, 80 mM KCl, measurement 4 ([2]; 80 mM KCl) | other results |
| --- | --- | --- | --- | --- | --- | --- | --- | --- | --- | --- | --- | --- | --- | --- | --- | --- | --- | --- | --- | --- | --- |
| CN(C)CCOC(c1ccccc1)c1ccccc1 [Diphenhydramine] | 2806 | 3161 | 4178 | 4884 | 3757.25 | 3468 | 2980 | 3062 | 3581 | 3267.75 | – | – | – | – | – | – | – | – | – | – | – |
| CCOC(=O)N1CCC(=C2c3ccc(Cl)cc3CCc3cccnc32)CC1 [Loratadine, ethyl 4-(8-chloro-5,6-dihydro-11H-benzo[5,6]cyclohepta[1,2-b]pyridin-11-ylidene)-1-piperidinecarboxytate] | 4905 | 5141 | 1857 | 3266 | 3792.25 | 3553 | 1965 | 3590 | 2478 | 2896.5 | – | – | – | – | – | – | – | – | – | – | – |
| O=c1[nH]c2ccccc2n1C1CCN(CCCC(c2ccc(F)cc2)c2ccc(F)cc2)CC1 [Pimozide, 1-(4,4-bis(P-fluorophenyl)butyl)-4-(2-oxo-1-benzimidazolinyl)-piperidine] | 357.4 | 747.9 | 804.6 | 585.4 | 623.825 | 905 | 2176 | 496.5 | 573.4 | 1037.725 | no generally toxic effect | 0.904 | 0.823 | 0.305 | 0.614 | 0.6615 | 3.673 | 3.505 | 3.46 and 3.48 | 3.441 | 80 mM KCl (average growth, OD 620 nm) ([2]; 80 mM KCl): 3.5 and 3.52; Exp. 1 (growth, OD620 nm) [3]: 0.004; Exp. 2 (growth, OD620 nm) [3]: 0.004; Exp. 3 (growth, OD620 nm) [3]: 0.005; Exp. 4 (growth, OD620 nm) [3]: 0.005; Mean growth (OD620 nm) [3]: 0.0045; complementation of the growth deficiency of the triple mutant by human HERG1 in the presence of the substance [3]: can no longer complement |
| O=C1NCCN1CCN1CCC(c2cn(-c3ccc(F)cc3)c3ccc(Cl)cc23)CC1 [Sertindole, 1-(2-[4-[5-chloro-1-(4-fluorophenyl)-1H-indol-3-yl]-1-piperidinyl]ethyl)-2-imidazolidinone] | 4165 | 2099 | 4588 | 3069 | 3480.25 | 3992 | 3076 | 3972 | 2782 | 3455.5 | – | – | – | – | – | – | – | – | – | – | specificity of inhibition of the human HERG1 channel (comparison with wild-type strain) [1]: specific inhibitors |
| CC(C)(C)c1ccc(C(O)CCCN2CCC(C(O)(c3ccccc3)c3ccccc3)CC2)cc1 (stereo not drawn) [Terfenadine, α-(4-tert-butylphenyl)-4-(α-hydroxy-αphenylbenzyl)-1-piperidinebutanol] | – | – | – | – | – | – | – | – | – | – | – | – | – | – | – | – | – | – | – | – | Exp. 1 (LacZ luminescence), ASSAY 1 [1]: 4497; Exp. 1 (LacZ luminescence), ASSAY 2 [1]: 3439; Exp. 2 (LacZ luminescence), ASSAY 1 [1]: 4481; Exp. 2 (LacZ luminescence), ASSAY 2 [1]: 3795; Exp. 3 (LacZ luminescence), ASSAY 1 [1]: 5058; Exp. 3 (LacZ luminescence), ASSAY 2 [1]: 3698; Exp. 4 (LacZ luminescence), ASSAY 1 [1]: 5381; Exp. 4 (LacZ luminescence), ASSAY 2 [1]: 3388; Mean growth (LacZ luminescence), ASSAY 1 [1]: 4854.25; Mean growth (LacZ luminescence), ASSAY 2 [1]: 3580 |
| O=C1Cc2cc(CCN3CCN(c4nsc5ccccc45)CC3)c(Cl)cc2N1 [Ziprasidone, 5-(2-[4-(1,2-benzisothiazol-3-yl)piperazino]-ethyl)-6-chloro-1,3-dihydro-2H-indol-2-one] | 55.32 | 70.29 | 70.3 | 77.18 | 68.2725 | 62.52 | 44.3 | 49.71 | 51.87 | 52.1 | has a toxic effect | 0.943 | 0.877 | 0.675 | 0.701 | 0.799 | 0.836 | 0.681 | 0.717 | 0.606 | specificity of inhibition of the human HERG1 channel (comparison with wild-type strain) [1]: rather unspecific inhibitors; effect on growth of yeast cells at higher potassium concentrations ([2]; 80 mM KCl, FIG. 10): inhibits the growth; 80 mM KCl (average growth, OD 620 nm) ([2]; 80 mM KCl): 0.7 and 0.71; Exp. 1 (growth, OD620 nm) [3]: 0.006; Exp. 2 (growth, OD620 nm) [3]: 0.01; Exp. 3 (growth, OD620 nm) [3]: 0.012; Exp. 4 (growth, OD620 nm) [3]: 0.015; Mean growth (OD620 nm) [3]: 0.01075; complementation of the growth deficiency of the triple mutant by human HERG1 in the presence of the substance [3]: can no longer complement |
